According to US10717742B2, “Spiro[3H-indole-3,2′-pyrrolidin]-2(1H)-one compounds and derivatives as MDM2-P53 inhibitors” (Boehringer Ingelheim International GmbH, priority 2015, dated 2020):

Biological target: p53-MDM2 interaction (GST-MDM2 protein aa 23-117 / biotinylated p53 wt peptide) (Homo sapiens (Human), UniProt Q00987)
Test: Mdm2-p53 Inhibition AlphaScreen
Assay type: binding
Details: GST-MDM2 (aa 23-117) / biotinylated p53 wt peptide

p53-MDM2 interaction (GST-MDM2 protein aa 23-117 / biotinylated p53 wt peptide), sequence (Q00987 23-117): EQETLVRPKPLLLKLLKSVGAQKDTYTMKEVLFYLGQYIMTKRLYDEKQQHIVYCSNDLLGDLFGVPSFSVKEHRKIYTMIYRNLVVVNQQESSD

IC50 [nM] | Compound
4 | O=C(NO)c1ccc2c(c1)nc1n2CC[C@H]2[C@@H]1[C@H](c1cccc(Cl)c1F)[C@]1(C(=O)Nc3cc(Cl)ccc31)N2CC1CC1 [Ib-231]
3 | CC(C)CN1[C@H]2CCn3c(nc4cc(C(N)=O)ccc43)[C@H]2[C@H](c2cccc(Cl)c2F)[C@]12C(=O)Nc1cc(Cl)ccc12 [Ib-232]
4 | CNC(=O)c1ccc2c(c1)nc1n2CC[C@H]2[C@@H]1[C@H](c1cccc(Cl)c1F)[C@]1(C(=O)Nc3cc(Cl)ccc31)N2CC(C)C [Ib-233]
3 | CNC(=O)c1cc2nc3n(c2cc1OC)CC[C@H]1[C@@H]3[C@H](c2cccc(Cl)c2F)[C@]2(C(=O)Nc3cc(Cl)ccc32)N1CC1CC1 [Ib-235]
5 | COc1cc2c(cc1C(=O)N(C)C)nc1n2CC[C@H]2[C@@H]1[C@H](c1cccc(Cl)c1F)[C@]1(C(=O)Nc3cc(Cl)ccc31)N2CC1CC1 [Ib-236]
10 | CNC(=O)c1cc2nc3n(c2cc1C)CC[C@H]1[C@@H]3[C@H](c2cccc(Cl)c2F)[C@]2(C(=O)Nc3cc(Cl)ccc32)N1CC1CC1 [Ib-237]
6 | NC(=O)c1ccc2nc3n(c2c1)CC[C@H]1[C@@H]3[C@H](c2cccc(Cl)c2F)[C@]2(C(=O)Nc3cc(Cl)ccc32)N1CC1CC1 [Ib-238]
3 | NC(=O)c1ccc2c(c1)nc1n2C[C@H]2[C@@H]1[C@H](c1cccc(Cl)c1F)[C@]1(C(=O)Nc3cc(Cl)ccc31)N2CC1CC1 [Ib-239]
3 | CNC(=O)c1ccc2c(c1)nc1n2C[C@H]2[C@@H]1[C@H](c1cccc(Cl)c1F)[C@]1(C(=O)Nc3cc(Cl)ccc31)N2CC1CC1 [Ib-240]
4 | CCOc1cccc(CN2[C@H]3Cn4c(nc5cc(C(N)=O)ccc54)[C@H]3[C@H](c3cccc(Cl)c3F)[C@]23C(=O)Nc2cc(Cl)ccc23)c1 [Ib-241]
2 | CCOc1cccc(CN2[C@H]3Cn4c(nc5cc(C(N)=O)ccc54)[C@H]3[C@H](c3cccc(Cl)c3F)[C@]23C(=O)Nc2cc(Cl)ccc23)c1 [Ib-242]
99 | CCOc1cccc(CN2[C@@H]3Cn4c(nc5cc(C(N)=O)ccc54)[C@@H]3[C@@H](c3cccc(Cl)c3F)[C@@]23C(=O)Nc2cc(Cl)ccc23)c1 [Ib-243]
3 | CCOc1cccc(CN2[C@H]3Cn4c(nc5cc(C(=O)NO)ccc54)[C@H]3[C@H](c3cccc(Cl)c3F)[C@]23C(=O)Nc2cc(Cl)ccc23)c1 [Ib-244]
20 | O=C1Nc2cc(Cl)ccc2[C@@]12[C@@H](c1cccc(Cl)c1F)[C@@H]1c3nc4cc(CO)ccc4n3CC[C@@H]1N2CC1CC1 [Ib-245]
27 | Nc1ccc2c(c1)nc1n2CC[C@H]2[C@@H]1[C@H](c1cccc(Cl)c1F)[C@]1(C(=O)Nc3cc(Cl)ccc31)N2CC1CC1 [Ib-247]
240 | O=C1Nc2cc(Cl)ccc2[C@@]12[C@@H](c1cccc(Cl)c1F)[C@@H]1c3nc4cc(N5CCCCC5)ccc4n3CC[C@@H]1N2CC1CC1 [Ib-249]
72 | O=C1Nc2cc(Cl)ccc2[C@@]12[C@@H](c1cccc(Cl)c1F)[C@@H]1c3nc4ccccc4n3CC[C@@H]1N2CC1CC1 [Ib-253]
6 | Cc1c(C(=O)O)ccn2c3c(nc12)[C@@H]1[C@H](C3)N(CC2CC2)[C@@]2(C(=O)Nc3cc(Cl)ccc32)[C@H]1c1ccnc(Cl)c1F [Ic-23]
13 | CCOc1cccc(CN2[C@H]3Cc4c(nc5c(C)c(C(=O)O)ccn45)[C@H]3[C@H](c3ccnc(Cl)c3F)[C@]23C(=O)Nc2cc(Cl)ccc23)c1 [Ic-27]
10 | Cc1c(C(=O)N(C)C)ccn2c3c(nc12)[C@@H]1[C@H](C3)N(CC2CC2)[C@@]2(C(=O)Nc3cc(Cl)ccc32)[C@H]1c1ccnc(Cl)c1F [Ic-29]
10 | Cc1c(C(=O)N2CCCCC2)ccn2c3c(nc12)[C@@H]1[C@H](C3)N(CC2CC2)[C@@]2(C(=O)Nc3cc(Cl)ccc32)[C@H]1c1ccnc(Cl)c1F [Ic-35]
10 | Cc1c(C(=O)N2CCOCC2)ccn2c3c(nc12)[C@@H]1[C@H](C3)N(CC2CC2)[C@@]2(C(=O)Nc3cc(Cl)ccc32)[C@H]1c1ccnc(Cl)c1F [Ic-37]

System: p53 wild-type vs. p53 mutant cell lines
Test: not given
Details: in vitro, PPTP of the NCI; cited from earlier work

Compound | cytotoxic activity, median IC50
CCOc1cc(C(C)(C)C)ccc1C1=N[C@@](C)(c2ccc(Cl)cc2)[C@@](C)(c2ccc(Cl)cc2)N1C(=O)N1CCN(CCCS(C)(=O)=O)CC1 [RG-7112] | lower median IC50 values for p53 wild-type vs. p53 mutant cell lines

System: solid tumor xenograft models
Test: not given
Details: cited from earlier work

Compound | tumor growth inhibition
CCOc1cc(C(C)(C)C)ccc1C1=N[C@@](C)(c2ccc(Cl)cc2)[C@@](C)(c2ccc(Cl)cc2)N1C(=O)N1CCN(CCCS(C)(=O)=O)CC1 [RG-7112] | induced tumor growth inhibition

System: acute lymphoblastic leukemia (ALL) xenograft models with mixed-lineage leukemia (MLL) rearrangement
Test: not given
Details: cited from earlier work

Compound | efficacy in xenograft models
CCOc1cc(C(C)(C)C)ccc1C1=N[C@@](C)(c2ccc(Cl)cc2)[C@@](C)(c2ccc(Cl)cc2)N1C(=O)N1CCN(CCCS(C)(=O)=O)CC1 [RG-7112] | particularly efficacious

System: human acute myeloid leukemia (AML) and human prostate tumor xenograft models harboring p53 wild-type
Test: not given
Details: cited from earlier work

Compound | antiproliferative and proapoptotic activity
CCOc1cc(C(C)(C)C)ccc1C1=N[C@@](C)(c2ccc(Cl)cc2)[C@@](C)(c2ccc(Cl)cc2)N1C(=O)N1CCN(CCCS(C)(=O)=O)CC1 [RG7112] | antiproliferative and proapoptotic activity
